For one molecule, IC50 results are on record in patent publication US12102633B2, “Spirolactone compounds” (Quixgen, Inc., priority 2017, dated 2024).

For one experiment, the target named is T1, human ACC2 (Homo sapiens, UniProt O00763).
T1 construct: purchased BPS Bioscience
As to the kind of experiment: Human ACC enzymatic activity assay (ACC2). It counts as biochemical. The settings on record: purified human ACC2; read-out: EA-CoA hACC 2 IC50. Put shortly: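 Purified human ACC1 (0.4 μg/mL) or ACC2 (0.48 μg/mL) was preincubated with compound 10 min at 37° C in HEPES pH 7.5 with 4.0 mM ATP and 15 mM ^13C-NaHCO3. The reaction was started with 5 μM acetyl-CoA, run 1-2 h at 37° C and stopped with TCA. Labelled malonyl-CoA was quantified by LC-MS/MS.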

The subject of another experiment is Human sebocytes. As to the kind of experiment: Cellular levels of malonyl-CoA in human sebocytes. It is filed as cell-based. The settings on record: 0.5 h, 30 min incubation, read-out: Malonyl-CoA in Sebo IC50. How it is done: Shimadzu LC system was used for sample analysis consisting of system controller (Shimadzu CBM-20A), autosampler (Shimadzu SIL-20A), pump A and B (Shimadzu LC-20AD), column oven (Shimadzu CTO-20A), and analytical column (Phenomenex Gemini 5u C18 11A, 100×2 mm). LC was running at 200 μL/min in the binary gradient mode with mobile phase A (5 mM Ammonium Acetate and 5 mM DMBA in water (1,3-Dimethylbutylamine)) and B (methanol). The samples were analyzed on an AB Sciex QTrap4000 LC-MS/MS triple quadrupole mass spectrometer (Applied Biosystems). Malonyl-CoA and malonyl-13C-CoA were monitored in positive ion mode following MRM transitions at 854.2/347.1 and 855.1/246.1, respectively. The product and internal standard were coeluted to the mass spectrometer in 3 s with 50% H2O, 25% MeCN, 25% acetone, and 5 mM ammonium acetate. Ion chromatograms were integrated using the Analyst 1.5.2 software. Peak area ratios were compared against a standard curve and final cellular concentration of malonyl-CoA or production rate of malonyl-13C-CoA was calculated as pmoles/mg protein per minute.
Human sebocytes (Celprogen) were grown in growth media (DMEM with 4.5 g/L glucose, 0.584 g/L L-glutamine (Sigma), 100 units/mL of penicillin and 100 μg/mL of streptomycin (Gibco), 10% fetal bovine serum (Gibco)) at 37° C. in a humidified water jacketed incubator (Forma Scientific) supplemented with 5% CO2 till 100% confluency. Cells grown in 152 cm^2 cell culture dish (Corning) were trypsinized with 0.25% trypsin-EDTA (Gibco), centrifuged at 800 rpm for 10 min (Eppendorf) and resuspended in 4 mL growth media. To 1 μL serial diluted compounds in DMSO, 99 μL cells (around 0.5 million cells suspended in growth media) were added and mixed well followed by incubation in cell culture incubator for 30 min. Cells were then centrifuged at 800 rpm for 10 min and 70 μL 10% trichloroacetic acid was added to each well to lyse the cells and precipitate proteins. Cellular levels of malonyl-CoA were quantitated by LC-MS/MS.

Each structure is given as a SMILES string. pIC50: −log10 of the molar value.

T1 sequence (O00763 whole entry): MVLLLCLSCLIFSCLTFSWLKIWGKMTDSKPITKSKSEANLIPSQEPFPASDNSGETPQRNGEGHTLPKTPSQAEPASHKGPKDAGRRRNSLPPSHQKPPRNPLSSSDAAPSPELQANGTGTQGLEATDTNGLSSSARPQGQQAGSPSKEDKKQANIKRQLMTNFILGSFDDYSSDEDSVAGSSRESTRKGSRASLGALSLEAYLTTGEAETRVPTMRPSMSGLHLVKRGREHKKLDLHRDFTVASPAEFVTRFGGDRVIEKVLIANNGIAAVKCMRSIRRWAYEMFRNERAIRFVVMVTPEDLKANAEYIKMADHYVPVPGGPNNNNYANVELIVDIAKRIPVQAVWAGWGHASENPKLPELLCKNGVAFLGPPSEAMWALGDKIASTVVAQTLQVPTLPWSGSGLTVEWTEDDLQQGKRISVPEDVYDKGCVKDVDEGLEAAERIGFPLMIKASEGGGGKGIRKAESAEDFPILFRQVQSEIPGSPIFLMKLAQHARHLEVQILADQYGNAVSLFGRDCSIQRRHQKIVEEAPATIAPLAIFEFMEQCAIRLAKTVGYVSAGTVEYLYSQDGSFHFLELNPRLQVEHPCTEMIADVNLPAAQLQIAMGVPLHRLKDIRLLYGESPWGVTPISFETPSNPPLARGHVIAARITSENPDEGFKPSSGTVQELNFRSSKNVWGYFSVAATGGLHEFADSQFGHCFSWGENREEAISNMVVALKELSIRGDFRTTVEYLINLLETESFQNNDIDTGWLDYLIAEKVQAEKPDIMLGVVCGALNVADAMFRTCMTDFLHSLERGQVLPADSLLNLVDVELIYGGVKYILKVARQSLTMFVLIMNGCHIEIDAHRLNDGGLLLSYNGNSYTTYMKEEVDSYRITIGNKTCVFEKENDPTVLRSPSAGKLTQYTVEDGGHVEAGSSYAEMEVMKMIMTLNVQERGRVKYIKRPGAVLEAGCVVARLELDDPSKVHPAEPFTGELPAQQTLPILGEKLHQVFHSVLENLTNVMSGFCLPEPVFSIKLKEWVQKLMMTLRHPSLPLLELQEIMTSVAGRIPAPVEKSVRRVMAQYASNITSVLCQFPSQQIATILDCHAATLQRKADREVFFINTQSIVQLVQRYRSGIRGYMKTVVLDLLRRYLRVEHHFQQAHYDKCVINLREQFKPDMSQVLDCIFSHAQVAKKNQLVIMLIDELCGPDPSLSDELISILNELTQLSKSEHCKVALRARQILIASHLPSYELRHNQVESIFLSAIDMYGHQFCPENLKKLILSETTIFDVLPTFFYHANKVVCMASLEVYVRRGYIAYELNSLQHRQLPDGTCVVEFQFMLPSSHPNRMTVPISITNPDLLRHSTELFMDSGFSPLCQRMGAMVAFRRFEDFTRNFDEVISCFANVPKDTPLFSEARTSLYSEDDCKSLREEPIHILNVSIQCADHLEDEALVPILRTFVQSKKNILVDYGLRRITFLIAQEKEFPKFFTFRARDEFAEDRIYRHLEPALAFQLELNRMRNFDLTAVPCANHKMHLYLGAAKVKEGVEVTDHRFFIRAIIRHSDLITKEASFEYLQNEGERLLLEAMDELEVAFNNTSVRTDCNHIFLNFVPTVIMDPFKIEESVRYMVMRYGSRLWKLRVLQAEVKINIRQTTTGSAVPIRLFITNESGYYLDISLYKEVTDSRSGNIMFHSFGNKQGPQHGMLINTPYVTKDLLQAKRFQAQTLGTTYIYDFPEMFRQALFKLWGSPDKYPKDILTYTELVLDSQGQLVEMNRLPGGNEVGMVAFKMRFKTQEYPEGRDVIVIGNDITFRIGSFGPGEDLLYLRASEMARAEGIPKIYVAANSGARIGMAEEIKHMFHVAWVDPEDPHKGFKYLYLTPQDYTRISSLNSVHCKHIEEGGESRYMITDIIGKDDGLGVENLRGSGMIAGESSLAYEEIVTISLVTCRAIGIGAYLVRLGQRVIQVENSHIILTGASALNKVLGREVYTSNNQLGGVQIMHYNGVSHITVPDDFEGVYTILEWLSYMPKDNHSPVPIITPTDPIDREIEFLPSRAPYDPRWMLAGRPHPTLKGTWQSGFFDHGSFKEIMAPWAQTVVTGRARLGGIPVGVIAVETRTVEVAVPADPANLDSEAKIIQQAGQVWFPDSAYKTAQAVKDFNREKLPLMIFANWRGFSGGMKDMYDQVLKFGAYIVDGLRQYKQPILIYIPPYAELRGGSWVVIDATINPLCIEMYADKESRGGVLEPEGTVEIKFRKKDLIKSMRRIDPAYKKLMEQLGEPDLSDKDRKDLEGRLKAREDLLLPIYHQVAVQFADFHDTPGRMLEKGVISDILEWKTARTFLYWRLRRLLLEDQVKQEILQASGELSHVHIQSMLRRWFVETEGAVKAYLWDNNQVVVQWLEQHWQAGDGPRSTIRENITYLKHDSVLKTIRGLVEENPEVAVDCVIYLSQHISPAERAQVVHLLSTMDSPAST

For orientation: pIC50 means −log10 of the IC50, conventionally taken in molar units. Consider `COc1cc(C(=O)N2CCC3(CC2)Cc2ccc(Nc4ccnn4C)cc2C(=O)O3)nc2c(OC)cccc12` [Example 6, 1′-(4,8-dimethoxyquinoline-2-carbonyl)-7-((1-methyl-1H-pyrazol-5-yl)amino)spiro[isochroman-3,4′-piperidin]-1-one], for which the pIC50 on human ACC2 was 7.51; in the experiment on Human sebocytes it was 7.32.
